This passage reports MIC results from ChEMBL document CHEMBL6134868, “Novel Aryl Sulfonium Modification on Vancomycin to Tackle MRSA and VRE In Vitro and In Vivo through Dual Enhanced Cell-Wall and Membrane Inhibition” (J Med Chem, 2025).

Assay type in all cases: functional
Conditions in all cases: time 16-24 hrs

Assay [1] deals with Enterococcus faecium. Put plainly: Antibacterial activity against vancomycin-resistant Enterococcus faecium Efm-HS-08257 harboring VanM phenotype incubated for 16 to 24 hrs by broth microdilution assay.
The next assay concerns Klebsiella pneumoniae. Briefly: Antibacterial activity against Klebsiella pneumoniae KP-1 incubated for 16 to 24 hrs by broth microdilution assay.
Assay [2] deals with Staphylococcus aureus. Put plainly: Antibacterial activity against methicillin-resistant Staphylococcus aureus USA300 LAC incubated for 16 to 24 hrs by broth microdilution assay.
In assay [3] the test system is Acinetobacter baumannii. Briefly: Antibacterial activity against Acinetobacter baumannii ATCC19606 incubated for 16 to 24 hrs by broth microdilution assay.
In assay [4] the test system is Staphylococcus aureus. Briefly: Antibacterial activity against vancomycin-intermediate Staphylococcus aureus Mu50 incubated for 16 to 24 hrs by broth microdilution assay.
The test system of a further assay is Pseudomonas aeruginosa. Put plainly: Antibacterial activity against Pseudomonas aeruginosa PAO1 incubated for 16 to 24 hrs by broth microdilution assay.
The subject of assay [5] is Enterococcus faecium. Briefly: Antibacterial activity against vancomycin-resistant Enterococcus faecium Efm-HS-vb01 harboring VanB phenotype incubated for 16 to 24 hrs by broth microdilution assay.
The test system of the next assay is Escherichia coli. Put plainly: Antibacterial activity against Escherichia coli AB1157 incubated for 16 to 24 hrs by broth microdilution assay.
Assay [6] concerns Enterococcus faecium. Briefly: Antibacterial activity against vancomycin-resistant Enterococcus faecium Efm-HS-0649 harboring VanA phenotype incubated for 16 to 24 hrs by broth microdilution assay.
In assay [7] the test system is Enterococcus faecium. Put plainly: Antibacterial activity against vancomycin-resistant Enterococcus faecium Efm-HS-vb02 harboring VanB phenotype incubated for 16 to 24 hrs by broth microdilution assay.
The test system of assay [8] is Acinetobacter baumannii. Briefly: Antibacterial activity against carbapenem-resistant Acinetobacter baumannii CRAB-1 clinical isolate incubated for 16 to 24 hrs by broth microdilution assay.

In brackets after ≈: the same amount, converted by molar mass.

`CN[C@H](CC(C)C)C(=O)N[C@H]1C(=O)N[C@@H](CC(N)=O)C(=O)N[C@H]2C(=O)N[C@H]3C(=O)N[C@H](C(=O)N[C@H](C(=O)NCCC[S+](C)CC(O)COc4ccc(C(C)(C)C)cc4)c4cc(O)cc(O)c4-c4cc3ccc4O)[C@H](O)c3ccc(c(Cl)c3)Oc3cc2cc(c3O[C@@H]2O[C@H](CO)[C@@H](O)[C@H](O)[C@H]2O[C@H]2C[C@](C)(N)[C@H](O)[C@H](C)O2)Oc2ccc(cc2Cl)[C@H]1O.O=C([O-])C(F)(F)F` (stereo not given in full): the MIC against Enterococcus faecium [1] was 8 µg/mL; against Klebsiella pneumoniae it was greater than 128 µg/mL; in the assay on Staphylococcus aureus [2], no more than 0.063 µg/mL; against Acinetobacter baumannii [3], 32 µg/mL; in the assay on Staphylococcus aureus [4] it was 1 µg/mL; against Pseudomonas aeruginosa, greater than 128 µg/mL. Also, the MIC was 16 µg/mL against Enterococcus faecium [5]; 32 µg/mL with Escherichia coli; 32 µg/mL in the assay on Enterococcus faecium [6]; 4 µg/mL against Enterococcus faecium [7]; 64 µg/mL against Acinetobacter baumannii [8].
Take `CN[C@H](CC(C)C)C(=O)N[C@H]1C(=O)N[C@@H](CC(N)=O)C(=O)N[C@H]2C(=O)N[C@H]3C(=O)N[C@H](C(=O)N[C@H](C(=O)O)c4cc(O)c(CNCCC[S+](C)CC(O)COc5ccc(-c6ccccc6)cc5)c(O)c4-c4cc3ccc4O)[C@H](O)c3ccc(c(Cl)c3)Oc3cc2cc(c3O[C@@H]2O[C@H](CO)[C@@H](O)[C@H](O)[C@H]2O[C@H]2C[C@](C)(N)[C@H](O)[C@H](C)O2)Oc2ccc(cc2Cl)[C@H]1O.O=C([O-])C(F)(F)F` (stereo not given in full): the MIC in the assay on Enterococcus faecium [1] is 4 µg/mL; with Klebsiella pneumoniae, greater than 128 µg/mL; in the assay on Staphylococcus aureus [2], no more than 0.063 µg/mL; against Acinetobacter baumannii [3] it was 16 µg/mL; in the assay with Staphylococcus aureus [4] it was no more than 0.063 µg/mL; with Pseudomonas aeruginosa it was greater than 128 µg/mL. For the same compound, the minimum inhibitory concentration (MIC) against Enterococcus faecium [5] was no more than 0.063 µg/mL; against Escherichia coli it was 16 µg/mL; in the assay with Enterococcus faecium [6] it was 4 µg/mL; against Enterococcus faecium [7], no more than 0.063 µg/mL; against Acinetobacter baumannii [8], 32 µg/mL.
For the compound `CN[C@H](CC(C)C)C(=O)N[C@H]1C(=O)N[C@@H](CC(N)=O)C(=O)N[C@H]2C(=O)N[C@H]3C(=O)N[C@H](C(=O)N[C@H](C(=O)NCCCSCC(O)COc4ccc(-c5ccc(C(F)(F)F)cc5)cc4)c4cc(O)cc(O)c4-c4cc3ccc4O)[C@H](O)c3ccc(c(Cl)c3)Oc3cc2cc(c3O[C@@H]2O[C@H](CO)[C@@H](O)[C@H](O)[C@H]2O[C@H]2C[C@](C)(N)[C@H](O)[C@H](C)O2)Oc2ccc(cc2Cl)[C@H]1O` (stereo not given in full), the MIC with Enterococcus faecium [1] was 2 µg/mL (≈ 1.1 µM); in the assay on Klebsiella pneumoniae it was greater than 128 µg/mL; in the assay with Staphylococcus aureus [2], 1 µg/mL (≈ 0.55 µM); against Acinetobacter baumannii [3], greater than 128 µg/mL; with Staphylococcus aureus [4] it was 1 µg/mL (≈ 0.55 µM); with Pseudomonas aeruginosa, greater than 128 µg/mL. Besides, the MIC was 4 µg/mL (≈ 2.2 µM) in the assay on Enterococcus faecium [5]; greater than 128 µg/mL against Escherichia coli; 4 µg/mL (≈ 2.2 µM) against Enterococcus faecium [6]; 2 µg/mL (≈ 1.1 µM) in the assay with Enterococcus faecium [7]; greater than 128 µg/mL in the assay on Acinetobacter baumannii [8].
Consider `CN[C@H](CC(C)C)C(=O)N[C@H]1C(=O)N[C@@H](CC(N)=O)C(=O)N[C@H]2C(=O)N[C@H]3C(=O)N[C@H](C(=O)N[C@H](C(=O)NCCC[S+](C)CC(O)COc4ccccc4Cl)c4cc(O)cc(O)c4-c4cc3ccc4O)[C@H](O)c3ccc(c(Cl)c3)Oc3cc2cc(c3O[C@@H]2O[C@H](CO)[C@@H](O)[C@H](O)[C@H]2O[C@H]2C[C@](C)(N)[C@H](O)[C@H](C)O2)Oc2ccc(cc2Cl)[C@H]1O.O=C([O-])C(F)(F)F` (stereo not given in full), for which the MIC was 8 µg/mL against Enterococcus faecium [1]; greater than 128 µg/mL in the assay with Klebsiella pneumoniae; 0.25 µg/mL in the assay with Staphylococcus aureus [2]; 64 µg/mL in the assay on Acinetobacter baumannii [3]; 1 µg/mL in the assay on Staphylococcus aureus [4]; greater than 128 µg/mL in the assay on Pseudomonas aeruginosa. Moreover, the MIC in the assay with Enterococcus faecium [5] was 8 µg/mL; in the assay with Escherichia coli it was 16 µg/mL; against Enterococcus faecium [6], 16 µg/mL; with Enterococcus faecium [7] it was 2 µg/mL; in the assay with Acinetobacter baumannii [8], greater than 128 µg/mL.
Consider `CN[C@H](CC(C)C)C(=O)N[C@H]1C(=O)N[C@@H](CC(N)=O)C(=O)N[C@H]2C(=O)N[C@H]3C(=O)N[C@H](C(=O)N[C@H](C(=O)NCCC[S+](C)CC(O)COc4ccc(-c5ccccc5)cc4)c4cc(O)cc(O)c4-c4cc3ccc4O)[C@H](O)c3ccc(c(Cl)c3)Oc3cc2cc(c3O[C@@H]2O[C@H](CO)[C@@H](O)[C@H](O)[C@H]2O[C@H]2C[C@](C)(N)[C@H](O)[C@H](C)O2)Oc2ccc(cc2Cl)[C@H]1O.O=C([O-])C(F)(F)F` (stereo not given in full), for which the minimal inhibitory concentration (MIC) against Enterococcus faecium [1] is 4 µg/mL; against Klebsiella pneumoniae, greater than 128 µg/mL; in the assay with Staphylococcus aureus [2], no more than 0.063 µg/mL; against Acinetobacter baumannii [3] it was 32 µg/mL; in the assay with Staphylococcus aureus [4], 0.5 µg/mL; in the assay on Pseudomonas aeruginosa it was greater than 128 µg/mL. Moreover, the MIC with Enterococcus faecium [5] worked out at 4 µg/mL; with Escherichia coli, 16 µg/mL; with Enterococcus faecium [6] it was 8 µg/mL; with Enterococcus faecium [7] it was 1 µg/mL; against Acinetobacter baumannii [8] it was 128 µg/mL.
`CN[C@H](CC(C)C)C(=O)N[C@H]1C(=O)N[C@@H](CC(N)=O)C(=O)N[C@H]2C(=O)N[C@H]3C(=O)N[C@H](C(=O)N[C@H](C(=O)O)c4cc(O)cc(O)c4-c4cc3ccc4O)[C@H](O)c3ccc(c(Cl)c3)Oc3cc2cc(c3O[C@@H]2O[C@H](CO)[C@@H](O)[C@H](O)[C@H]2O[C@H]2C[C@](C)(NCCC[S+](C)CC(O)COc3ccccc3)[C@H](O)[C@H](C)O2)Oc2ccc(cc2Cl)[C@H]1O.O=C([O-])C(F)(F)F` (stereo not given in full): the MIC with Enterococcus faecium [1] is 16 µg/mL; with Klebsiella pneumoniae it was greater than 128 µg/mL; against Staphylococcus aureus [2], 0.25 µg/mL; in the assay on Acinetobacter baumannii [3], 128 µg/mL; in the assay with Staphylococcus aureus [4] it was 1 µg/mL; in the assay on Pseudomonas aeruginosa, greater than 128 µg/mL. Besides, the MIC with Enterococcus faecium [5] came to 16 µg/mL; in the assay with Escherichia coli, 128 µg/mL; against Enterococcus faecium [6], 16 µg/mL; in the assay with Enterococcus faecium [7], 4 µg/mL; with Acinetobacter baumannii [8], 128 µg/mL.
With `CN[C@H](CC(C)C)C(=O)N[C@H]1C(=O)N[C@@H](CC(N)=O)C(=O)N[C@H]2C(=O)N[C@H]3C(=O)N[C@H](C(=O)N[C@H](C(=O)NCCC[S+](C)CC(O)COc4ccc(-c5ccc(Cl)cc5)cc4)c4cc(O)cc(O)c4-c4cc3ccc4O)[C@H](O)c3ccc(c(Cl)c3)Oc3cc2cc(c3O[C@@H]2O[C@H](CO)[C@@H](O)[C@H](O)[C@H]2O[C@H]2C[C@](C)(N)[C@H](O)[C@H](C)O2)Oc2ccc(cc2Cl)[C@H]1O.O=C([O-])C(F)(F)F` (stereo not given in full), the MIC was 2 µg/mL with Enterococcus faecium [1]; greater than 128 µg/mL in the assay with Klebsiella pneumoniae; no more than 0.063 µg/mL against Staphylococcus aureus [2]; 16 µg/mL against Acinetobacter baumannii [3]; 0.25 µg/mL with Staphylococcus aureus [4]; greater than 128 µg/mL against Pseudomonas aeruginosa. Moreover, the MIC in the assay with Enterococcus faecium [5] was 4 µg/mL; against Escherichia coli, 16 µg/mL; against Enterococcus faecium [6], 2 µg/mL; in the assay on Enterococcus faecium [7] it was 0.5 µg/mL; against Acinetobacter baumannii [8] it was 64 µg/mL.
Turning to `CN[C@H](CC(C)C)C(=O)N[C@H]1C(=O)N[C@@H](CC(N)=O)C(=O)N[C@H]2C(=O)N[C@H]3C(=O)N[C@H](C(=O)N[C@H](C(=O)O)c4cc(O)c(CNCCC[S+](C)CC(O)COc5ccc(-c6ccc(Cl)cc6)cc5)c(O)c4-c4cc3ccc4O)[C@H](O)c3ccc(c(Cl)c3)Oc3cc2cc(c3O[C@@H]2O[C@H](CO)[C@@H](O)[C@H](O)[C@H]2O[C@H]2C[C@](C)(N)[C@H](O)[C@H](C)O2)Oc2ccc(cc2Cl)[C@H]1O.O=C([O-])C(F)(F)F` (stereo not given in full), the minimum inhibitory concentration (MIC) against Enterococcus faecium [1] was 2 µg/mL; against Klebsiella pneumoniae, 128 µg/mL; against Staphylococcus aureus [2], no more than 0.063 µg/mL; in the assay on Acinetobacter baumannii [3], 16 µg/mL; with Staphylococcus aureus [4] it was no more than 0.063 µg/mL; in the assay with Pseudomonas aeruginosa it was greater than 128 µg/mL. Also, the MIC against Enterococcus faecium [5] was no more than 0.063 µg/mL; in the assay on Escherichia coli it was 8 µg/mL; in the assay with Enterococcus faecium [6], 0.5 µg/mL; against Enterococcus faecium [7], no more than 0.063 µg/mL; against Acinetobacter baumannii [8], 16 µg/mL.
Regarding `CN[C@H](CC(C)C)C(=O)N[C@H]1C(=O)N[C@@H](CC(N)=O)C(=O)N[C@H]2C(=O)N[C@H]3C(=O)N[C@H](C(=O)N[C@H](C(=O)NCCC[S+](C)CC(O)COc4ccc(OC)cc4)c4cc(O)cc(O)c4-c4cc3ccc4O)[C@H](O)c3ccc(c(Cl)c3)Oc3cc2cc(c3O[C@@H]2O[C@H](CO)[C@@H](O)[C@H](O)[C@H]2O[C@H]2C[C@](C)(N)[C@H](O)[C@H](C)O2)Oc2ccc(cc2Cl)[C@H]1O.O=C([O-])C(F)(F)F` (stereo not given in full), the MIC against Enterococcus faecium [1] is 16 µg/mL; in the assay with Klebsiella pneumoniae, greater than 128 µg/mL; in the assay with Staphylococcus aureus [2] it was 0.25 µg/mL; against Acinetobacter baumannii [3], 64 µg/mL; in the assay on Staphylococcus aureus [4] it was 2 µg/mL; against Pseudomonas aeruginosa, greater than 128 µg/mL. The MIC in the assay with Enterococcus faecium [5] was determined as 16 µg/mL; in the assay on Escherichia coli, 16 µg/mL; in the assay on Enterococcus faecium [6], 32 µg/mL; against Enterococcus faecium [7] it was 4 µg/mL; against Acinetobacter baumannii [8] it was 64 µg/mL.
Consider `CN[C@H](CC(C)C)C(=O)N[C@H]1C(=O)N[C@@H](CC(N)=O)C(=O)N[C@H]2C(=O)N[C@H]3C(=O)N[C@H](C(=O)N[C@H](C(=O)O)c4cc(O)c(CNCCC[S+](C)C[C@H](O)COc5ccccc5)c(O)c4-c4cc3ccc4O)[C@H](O)c3ccc(c(Cl)c3)Oc3cc2cc(c3O[C@@H]2O[C@H](CO)[C@@H](O)[C@H](O)[C@H]2O[C@H]2C[C@](C)(N)[C@H](O)[C@H](C)O2)Oc2ccc(cc2Cl)[C@H]1O.O=C([O-])C(F)(F)F` (stereo not given in full), for which the MIC against Enterococcus faecium [1] was 128 µg/mL; against Klebsiella pneumoniae, greater than 128 µg/mL; in the assay with Staphylococcus aureus [2], 2 µg/mL; against Acinetobacter baumannii [3] it was greater than 128 µg/mL; in the assay with Staphylococcus aureus [4], 16 µg/mL; against Pseudomonas aeruginosa it was greater than 128 µg/mL. The MIC is 4 µg/mL with Enterococcus faecium [5]; 64 µg/mL against Escherichia coli; greater than 128 µg/mL against Enterococcus faecium [6]; 8 µg/mL in the assay with Enterococcus faecium [7]; greater than 128 µg/mL in the assay on Acinetobacter baumannii [8].
